The text below walks through data of patent US20230099344A1, “COMPOUNDS AND METHODS FOR THE TARGETED DEGRADATION OF IRAK-4” (Arvinas Operations, Inc., priority 2021, published 2023).

What all share (type): cell-based
Assay [1] concerns IL6. The experiment in a line: LPS stimulated IL6 inhibition assay in PBMC. The following applies: Homo sapiens, PBMC, 24 h, human PBMCs, LPS stimulation, compound overnight, IL6 by MSD after 24 hrs; for Dmax: read-out: LPS Stim IL6 inhibition Dmax; for pIC50: read-out: LPS stim IL6 inhibition IC50. As to the method: (§1) IL-1β, LPS, or R848 Stimulated IL6 Inhibition and IL-1β Stimulated IL8 Inhibition Assay
(§2) Human PBMC cells were seeded at 2.0×10^6 cells/mL, treated with compound overnight, and dosed with the EC50 concentration of each stimulant (either IL-1B. LPS, or R848) was determined for each donor. After 24 hrs, media was collected and analyzed by MSD for IL6 and/or IL8 levels.

The test system of assay [2] is IL6. The experiment in a line: R848 stimulated IL6 inhibition assay in PBMC. The following applies: PBMC, human PBMCs, R848 stimulation, compound overnight, IL6 by MSD after 24 hrs; for Dmax: Homo sapiens, 24 h, read-out: R848 stim IL6 inhibition Dmax; for pIC50: read-out: R848 stim IL6 inhibition IC50. How it is done:
as §1, §2

The target of a further assay is T1, IRAK-4 (Homo sapiens, UniProt Q9NWZ3).
T1 sequence (Q9NWZ3 1-460): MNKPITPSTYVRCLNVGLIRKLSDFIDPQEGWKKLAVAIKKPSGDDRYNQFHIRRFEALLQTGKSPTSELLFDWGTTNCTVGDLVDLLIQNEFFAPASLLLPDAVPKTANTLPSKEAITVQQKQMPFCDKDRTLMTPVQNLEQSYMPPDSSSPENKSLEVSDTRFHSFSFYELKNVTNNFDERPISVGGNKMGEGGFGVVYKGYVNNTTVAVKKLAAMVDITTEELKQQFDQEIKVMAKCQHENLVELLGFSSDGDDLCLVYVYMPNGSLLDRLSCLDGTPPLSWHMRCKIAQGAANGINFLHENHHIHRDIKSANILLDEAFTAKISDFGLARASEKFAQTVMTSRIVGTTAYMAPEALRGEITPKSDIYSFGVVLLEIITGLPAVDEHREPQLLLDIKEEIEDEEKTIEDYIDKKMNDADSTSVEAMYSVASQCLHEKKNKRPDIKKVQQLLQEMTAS
The experiment in a line: IRAK-4 ELISA, PBMC degradation. The following applies: treated overnight. On the set-up: endogenous in cells; host or cells: PBMC. A digest of the protocol: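 Steps: seed cells (OCI-Ly10 1×10^6/ml; PBMC 2×10^6/ml); add compound the same day; incubate overnight; lyse; quantify IRAK-4 by matched-pair ELISA.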
In general terms: An ELISA detects its analyte on a solid surface through an enzyme-linked reagent.

Each structure is given as a SMILES string. pIC50: −log10 of the molar value.

With `O=C1CCC(N2C(=O)c3ccc(N4CCN(C[C@H]5CC[C@H](N6Cc7cc(NC(=O)c8cnn9cccnc89)c(N8CCN(CC(F)F)CC8)cc7C6=O)CC5)CC4)cc3C2=O)C(=O)N1` (stereo partly shown) [371′], in the assay on IL6 [1], the Dmax is less than 70% and the pIC50 (in general, the IC50 on a negative log10 scale, so that one unit is a factor of ten) was 7.30 to 8.00. In the assay with IL6 [2], the Dmax was no less than 90% and the pIC50 was 7.30 to 8.00. On IRAK-4, the DC50 – broadly, the midpoint of the concentration-degradation curve – was 1 to 5 nM; the Dmax was no less than 90%; the “PBMC DC90” value was “B (B represents a DC90 value ≥10.0 nM and <25.0 nM)”.
As for `CC(C)Oc1cc2c(cc1NC(=O)c1cnn3cccnc13)CN(C[C@@H](F)C1CN(CC3CCN(c4ccc5c(c4)C(=O)N(C4CCC(=O)NC4=O)C5=O)CC3)C1)C2=O` (stereo partly shown) [Example 19], in the assay with IL6 [1], the Dmax lay within 80 to 90% and the pIC50 is 7.30 to 8.00. In the assay with IL6 [2], the Dmax was no less than 90% and the pIC50 was 7.30 to 8.00. Moreover, at IRAK-4, the half-maximal degradation concentration (DC50) lay in the range of 1 to 5 nM, the Dmax was 80 to 90% and the “PBMC DC90” value is recorded as “A (A represents a DC90 value <10.0 nM)”.
Take `CC(C)Oc1cc2c(cc1NC(=O)c1cnn3cccnc13)CN(C1CCN(CC3CCN(c4ccc5c(c4F)CN(C4CCC(=O)NC4=O)C5=O)CC3)CC1)C2=O` (stereo not shown) [Example 41]: in the assay with IL6 [1], the Dmax lay in the range of 70 to 80% and the pIC50 is 7.30 to 8.00. In addition, in the assay with IL6 [2], the Dmax was no less than 90% and the pIC50 was greater than 8.00. For the same compound, at IRAK-4, the DC50 was less than 1 nM, the Dmax lay in the range of 80 to 90% and the “PBMC DC90” value is given as “A (A represents a DC90 value <10.0 nM)”.
Turning to `O=C1CCC(N2C(=O)c3ccc(N4CCC(CN5CCC(N6Cc7cc(NC(=O)c8cnn9cccnc89)c(OCC(F)F)cc7C6=O)CC5)CC4)cc3C2=O)C(=O)N1` (stereo not shown) [Example 42], in the assay with IL6 [1], the Dmax is less than 70% and the pIC50 is 7.00 to 7.30. Further, in the assay on IL6 [2], the Dmax is less than 70% and the pIC50 was greater than 8.00. On IRAK-4, the DC50 lay within 1 to 5 nM; the Dmax was no less than 90%; the “PBMC DC90” value is “B (B represents a DC90 value ≥10.0 nM and <25.0 nM)”.
Consider `CC(C)Oc1cc2c(cc1NC(=O)c1cnn3cc(Cl)cnc13)CN(C1CCN(CC3CCN(c4ccc5c(c4)C(=O)N(C4CCC(=O)NC4=O)C5=O)CC3)CC1)C2=O` (stereo not shown) [Example 43], for which, in the assay with IL6 [1], the Dmax is less than 70% and the pIC50 is greater than 8.00. Moreover, in the assay on IL6 [2], the Dmax is 80 to 90% and the pIC50 is 7.30 to 8.00. At IRAK-4, the 50% degradation concentration (DC50) fell in the range of 1 to 5 nM; the Dmax was no less than 90%; the “PBMC DC90” value was “B (B represents a DC90 value ≥10.0 nM and <25.0 nM)”.
As to `CC(C)Oc1cc2nn(C3CCN(CC4(F)CN(c5ccc6c(c5)C(=O)N(C5CCC(=O)NC5=O)C6=O)C4)CC3)cc2cc1NC(=O)c1cnn2cccnc12` (stereo not shown) [Example 265, N-[2-[1-[[1-[2-(2,6-dioxo-3-piperidyl)-1,3-dioxo-isoindolin-5-yl]-3-fluoro-azetidin-3-yl]methyl]-4-piperidyl]-6-isopropoxy-indazol-5-yl]pyrazolo[1,5-a]pyrimidine-3-carboxamide], in the assay on IL6 [1], the Dmax is no less than 90% and the pIC50 is 7.30 to 8.00. Further, at IRAK-4, the DC50 was in the range of 1 to 5 nM, the Dmax is no less than 90% and the “PBMC DC90” value is “A (A represents a DC90 value <10.0 nM)”.
`CC(C)Oc1cc2nn(C3CCN(CC4(F)CN(c5ccc6c(n5)C(=O)N(C5CCC(=O)NC5=O)C6=O)C4)CC3)cc2cc1NC(=O)c1cnn2cccnc12` (stereo not shown) [Example 411, N-(2-(1-((1-(6-(2,6-dioxopiperidin-3-yl)-5,7-dioxo-6,7-dihydro-5H-pyrrolo[3,4-b]pyridin-2-yl)-3-fluoroazetidin-3-yl)methyl)piperidin-4-yl)-6-isopropoxy-2H-indazol-5-yl)pyrazolo[1,5-a]pyrimidine-3-carboxamide]: on IRAK-4, the DC50 fell in the range of 5 to 10 nM, the Dmax fell in the range of 80 to 90% and the “PBMC DC90” value is on record as “D (D represents a DC90 value ≥50 nM)”.
Taken in the same sequence, the figures for `O=C1CCC(N2C(=O)c3ccc(N4CC(CN5CCC([C@H](F)CN6Cc7cc(NC(=O)c8cnn9cccnc89)c(N8CCOCC8)cc7C6=O)CC5)C4)cc3C2=O)C(=O)N1` (stereo partly drawn) [Example 412, N-(2-((2S)-2-(1-((1-(2-(2,6-dioxopiperidin-3-yl)-1,3-dioxoisoindolin-5-yl)azetidin-3-yl)methyl)piperidin-4-yl)-2-fluoroethyl)-6-morpholino-1-oxoisoindolin-5-yl)pyrazolo[1,5-a]pyrimidine-3-carboxamide] were 1 to 5 nM, 80 to 90% and “A (A represents a DC90 value <10.0 nM)”.
On to `O=C1CCC(N2C(=O)c3ccc(N4CC(F)(CN5CCC([C@H](F)CN6Cc7cc(NC(=O)c8cnn9cccnc89)c(N8CCOCC8)cc7C6=O)CC5)C4)cc3C2=O)C(=O)N1` (stereo partly shown) [Example 413], for which, at IRAK-4, the DC50 was 1 to 5 nM; the Dmax lay in the range of 80 to 90%; the “PBMC DC90” value is “B (B represents a DC90 value ≥10.0 nM and <25.0 nM)”.
Take `CC(C)Oc1cc2nn(C[C@@H](F)C3CCN(CC4(F)CN(c5ccc6c(c5)C(=O)N(C5CCC(=O)NC5=O)C6=O)C4)CC3)cc2cc1NC(=O)c1cnn2cccnc12` (stereo partly shown) [Example 414]: on IRAK-4, the DC50 was in the range of 1 to 5 nM; the Dmax lay within 80 to 90%; the “PBMC DC90” value is “B (B represents a DC90 value ≥10.0 nM and <25.0 nM)”.
With `CC(C)Oc1cc2nn(C[C@@H](F)C3CCN(CC4CN(c5ccc6c(c5)C(=O)N(C5CCC(=O)NC5=O)C6=O)C4)CC3)cc2cc1NC(=O)c1cnn2cccnc12` (stereo partly shown) [Example 415], on IRAK-4, the DC50 lay within 1 to 5 nM, the Dmax was in the range of 80 to 90% and the “PBMC DC90” value is on record as “A (A represents a DC90 value <10.0 nM)”.
Taken in the same sequence, the figures for `CC(C)Oc1nc2nn(C3CCN(CC4(F)CN(c5ccc6c(c5)CN(C5CCC(=O)NC5=O)C6=O)C4)CC3)cc2cc1NC(=O)c1cnn2cccnc12` (stereo not shown) [Example 416, N-[2-[1-[[1-[2-(2,6-dioxo-3-piperidyl)-1-oxo-isoindolin-5-yl]-3-fluoro-azetidin-3-yl]methyl]-4-piperidyl]-6-isopropoxy-pyrazolo[3,4-b]pyridin-5-yl]pyrazolo[1,5-a]pyrimidine-3-carboxamide] were less than 1 nM, 80 to 90% and “A (A represents a DC90 value <10.0 nM)”.
On the same counts, the results for `O=C1CCC(N2C(=O)c3ccc(N4CC5(CCCN(C6CCC(n7cc8cc(NC(=O)c9cnn%10cccnc9%10)c(OCC9CC9)cc8n7)CC6)C5)C4)cc3C2=O)C(=O)N1` (stereo not shown) [Example 417, N-(6-(cyclopropylmethoxy)-2-(4-(2-(2-(2,6-dioxopiperidin-3-yl)-1,3-dioxoisoindolin-5-yl)-2,6-diazaspiro[3.5]nonan-6-yl)cyclohexyl)-2H-indazol-5-yl)pyrazolo[1,5-a]pyrimidine-3-carboxamide] are less than 1 nM, no less than 90% and “A (A represents a DC90 value <10.0 nM)”.
On the same counts, the results for `O=C1CCC(N2Cc3cc(N4CC(F)(CN5CCC(n6cc7cc(NC(=O)c8cnn9cccnc89)c(OCC8CC8)cc7n6)CC5)C4)cc(F)c3C2=O)C(=O)N1` (stereo not shown) [Example 420, N-[6-(cyclopropylmethoxy)-2-[1-[[1-[2-(2,6-dioxo-3-piperidyl)-7-fluoro-1-oxo-isoindolin-5-yl]-3-fluoro-azetidin-3-yl]methyl]-4-piperidyl]indazol-5-yl]pyrazolo[1,5-a]pyrimidine-3-carboxamide] are less than 1 nM, no less than 90% and “A (A represents a DC90 value <10.0 nM)”.
As to `O=C1CCC(N2Cc3cc(N4CC(F)(CN5CCC(n6cc7cc(NC(=O)c8cnn9cccnc89)c(OCC8CC8)cc7n6)CC5)C4)c(F)cc3C2=O)C(=O)N1` (stereo not shown) [Example 421], at IRAK-4, the DC50 was less than 1 nM, the Dmax lay in the range of 80 to 90% and the “PBMC DC90” value was “A (A represents a DC90 value <10.0 nM)”.
`CC(C)Oc1cc2nn(C3CCN(CC4(F)CN(c5cc6c(cn5)C(=O)N(C5CCC(=O)NC5=O)C6=O)C4)CC3)cc2cc1NC(=O)c1cnn2cccnc12` (stereo not shown) [Example 422, N-(2-(1-((1-(2-(2,6-dioxopiperidin-3-yl)-1,3-dioxo-2,3-dihydro-1H-pyrrolo[3,4-c]pyridin-6-yl)-3-fluoroazetidin-3-yl)methyl)piperidin-4-yl)-6-isopropoxy-2H-indazol-5-yl)pyrazolo[1,5-a]pyrimidine-3-carboxamide]: on IRAK-4, the DC50 was in the range of 1 to 5 nM; the Dmax was in the range of 70 to 80%; the “PBMC DC90” value is “C (C represents a DC90 value ≥25.0 nM and <50 nM)”.
